Source: PubChem BioAssay AID256 (DTP/NCI, 2004)
Values joined by “and” are separate entries in the source; they are usually repeats but may differ in a detail not shown here. Equal values may be shown once. Toxic doses and inconclusive results are not listed. The calls were made as follows: active = survival T/C of 150% or more; inactive = T/C below 125% in these data.

Tested on: CD2F1 mice, L1210 leukemia ip, survival T/C
Assay: NCI In Vivo Anticancer Drug Screen. Data for tumor model L1210 Leukemia (intraperitoneal) in CD2F1 (CDF1) mice
Conditions: higher = longer survival
In short: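 Antitumor effect is scored in animals hosting a serially transplanted tumor. Values compare compound-dosed animals against vehicle-only controls as a simple quotient.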

[1] = endpoint: mean survival time, dose: 100.0 mg/kg/injection, schedule: Q01DX001 (ip), vehicle: saline with Tween-80
[2] = endpoint: mean survival time, dose: 200.0 mg/kg/injection, schedule: Q01DX001 (ip), vehicle: saline with Tween-80
[3] = endpoint: mean survival time, dose: 400.0 mg/kg/injection, schedule: Q01DX001 (ip), vehicle: saline with Tween-80
[4] = endpoint: mean survival time, dose: 100.0 mg/kg/injection, schedule: Q01DX009 (ip), vehicle: saline with Tween-80
[5] = endpoint: mean survival time, dose: 100.0 mg/kg/injection, schedule: Q04DX002 (ip), vehicle: saline with Tween-80
[6] = endpoint: mean survival time, dose: 100.0 mg/kg/injection, schedule: Q04DX003 (ip), vehicle: saline with Tween-80
[7] = endpoint: mean survival time, dose: 200.0 mg/kg/injection, schedule: Q01DX009 (ip), vehicle: saline with Tween-80
[8] = endpoint: mean survival time, dose: 200.0 mg/kg/injection, schedule: Q04DX002 (ip), vehicle: saline with Tween-80
[9] = endpoint: mean survival time, dose: 200.0 mg/kg/injection, schedule: Q04DX003 (ip), vehicle: saline with Tween-80
[10] = endpoint: mean survival time, dose: 400.0 mg/kg/injection, schedule: Q04DX002 (ip), vehicle: saline with Tween-80
[11] = endpoint: mean survival time, dose: 400.0 mg/kg/injection, schedule: Q04DX003 (ip), vehicle: saline with Tween-80
[12] = endpoint: mean survival time, dose: 25.0 mg/kg/injection, schedule: Q01DX009 (ip), vehicle: saline with Tween-80
[13] = endpoint: mean survival time, dose: 50.0 mg/kg/injection, schedule: Q01DX009 (ip), vehicle: saline with Tween-80
[14] = endpoint: mean survival time, dose: 25.0 mg/kg/injection, schedule: Q04DX003 (ip), vehicle: saline
[15] = endpoint: mean survival time, dose: 50.0 mg/kg/injection, schedule: Q04DX003 (ip), vehicle: saline
[16] = endpoint: mean survival time, dose: 100.0 mg/kg/injection, schedule: Q04DX003 (ip), vehicle: saline

Measured: T/C

O=[N+]([O-])c1ccc2c(c1[N+](=O)[O-])CCCC2
inactive: [1] 104 % of control | [2] 107 % of control | [3] 93 % of control

CC[N](CC)[Ge]([CH2]C)[CH2]C.CC[N](CC)[Ge]([CH2]C)[CH2]C
inactive: endpoint: mean survival time, dose: 3.12 mg/kg/injection, schedule: Q01DX009 (ip), vehicle: saline 98 % of control | endpoint: mean survival time, dose: 3.12 mg/kg/injection, schedule: Q01DX009 (ip), vehicle: suspension in saline 98 % of control | endpoint: mean survival time, dose: 6.25 mg/kg/injection, schedule: Q01DX009 (ip), vehicle: saline 98 % of control | endpoint: mean survival time, dose: 6.25 mg/kg/injection, schedule: Q01DX009 (ip), vehicle: suspension in saline 114 % of control | endpoint: mean survival time, dose: 12.5 mg/kg/injection, schedule: Q01DX009 (ip), vehicle: saline 98 % of control | endpoint: mean survival time, dose: 12.5 mg/kg/injection, schedule: Q01DX009 (ip), vehicle: suspension in saline 106 % of control | endpoint: mean survival time, dose: 25.0 mg/kg/injection, schedule: Q01DX009 (ip), vehicle: saline 101 % of control | endpoint: mean survival time, dose: 25.0 mg/kg/injection, schedule: Q01DX009 (ip), vehicle: suspension in saline 97 % of control | endpoint: mean survival time, dose: 50.0 mg/kg/injection, schedule: Q01DX009 (ip), vehicle: saline 110 % of control | endpoint: mean survival time, dose: 50.0 mg/kg/injection, schedule: Q01DX009 (ip), vehicle: suspension in saline 101 % of control

O=C(NC(=S)Nc1ccc(CCO)cc1)c1cccc(Br)c1
inactive: [1] 104 % of control | [4] 97 % of control and 98 % of control | [5] 88 % of control and 101 % of control | [6] 100 % of control | [2] 98 % of control | [7] 101 % of control and 108 % of control | [8] 91 % of control and 92 % of control | [9] 100 % of control | [3] 104 % of control | endpoint: mean survival time, dose: 400.0 mg/kg/injection, schedule: Q01DX009 (ip), vehicle: saline with Tween-80 86 % of control and 106 % of control | [10] 95 % of control | [11] 93 % of control

CCC[n+]1c(C)oc2ccc(-c3ccccc3)cc21
inactive: [6] 100 % of control | [9] 101 % of control

O=C1c2ccccc2C(=O)c2cc(NS(=O)(=O)C(F)(F)F)ccc21
inactive: endpoint: mean survival time, dose: 100.0 mg/kg/injection, schedule: Q01DX001 (ip), vehicle: saline 96 % of control | endpoint: mean survival time, dose: 200.0 mg/kg/injection, schedule: Q01DX001 (ip), vehicle: saline 100 % of control

O=C(O)c1ccccc1/C=C/c1ccc([N+](=O)[O-])cc1
inactive: [12] 98 % of control | [13] 95 % of control | [4] 104 % of control

O=C(CC1(O)C(=O)Nc2ccccc21)c1c[nH]c2ccccc12 (configuration not stated)
inactive: [13] 95 % of control | [4] 98 % of control | [7] 91 % of control

COc1cc(OC)c(NC(=O)Nc2ccc(NC(C)=O)cc2)cc1Cl
inactive: endpoint: mean survival time, dose: 12.5 mg/kg/injection, schedule: Q01DX009 (ip), vehicle: saline with Tween-80 103 % of control | [12] 103 % of control | [13] 103 % of control

NC(=O)c1cc(NCCN2CCCCC2)c([N+](=O)[O-])cc1[N+](=O)[O-]
inactive: [5] 95 % of control | [8] 95 % of control | [10] 95 % of control

CNC(=O)N(C)c1ccccc1
inactive: endpoint: mean survival time, dose: 100.0 mg/kg/injection, schedule: Q04DX002 (ip), vehicle: saline 101 % of control | endpoint: mean survival time, dose: 200.0 mg/kg/injection, schedule: Q04DX002 (ip), vehicle: saline 101 % of control | endpoint: mean survival time, dose: 400.0 mg/kg/injection, schedule: Q04DX002 (ip), vehicle: saline 101 % of control

Cc1[nH]c2cc(Cl)ccc2c1CC(=O)O
inactive: endpoint: mean survival time, dose: 100.0 mg/kg/injection, schedule: Q01DX001 (ip), vehicle: other 101 % of control | endpoint: mean survival time, dose: 200.0 mg/kg/injection, schedule: Q01DX001 (ip), vehicle: other 98 % of control | endpoint: mean survival time, dose: 400.0 mg/kg/injection, schedule: Q01DX001 (ip), vehicle: other 98 % of control

O=[N+]([O-])/C(=C/C=C/c1ccccc1)c1ccccc1
inactive: [1] 101 % of control | [2] 103 % of control | [3] 91 % of control

Cc1c2ncnc-2ncn1O
inactive: [14] 97 % of control | [15] 101 % of control | [16] 104 % of control

COC(=O)c1csc(NC2OC(CO)C(O)C2O)n1 (configuration not stated)
inactive: endpoint: median survival time, dose: 45.9 mg/kg/injection, schedule: Q01DX005 (ip), vehicle: saline 100 % of control | endpoint: median survival time, dose: 91.8 mg/kg/injection, schedule: Q01DX005 (ip), vehicle: saline 100 % of control | endpoint: median survival time, dose: 183.6 mg/kg/injection, schedule: Q01DX005 (ip), vehicle: saline 97 % of control

CN(C)C(=S)Nc1ccc(Cl)cc1
inactive: [6] 98 % of control | [9] 98 % of control | [11] 100 % of control

CC(C(=O)N1c2ccccc2Sc2ccccc21)[N+](C)(C)C (configuration not stated)
inactive: endpoint: mean survival time, dose: 12.5 mg/kg/injection, schedule: Q04DX003 (ip), vehicle: saline 97 % of control | [14] 101 % of control | [15] 101 % of control

CCCCCCCCCCCCCCCCCCOCC(COP(=O)([O-])OCC[N+](C)(C)C)OC (configuration not stated)
inactive: endpoint: median survival time, dose: 6.25 mg/kg/injection, schedule: Q01DX009 (ip), vehicle: suspension in saline 98 % of control | endpoint: median survival time, dose: 12.5 mg/kg/injection, schedule: Q01DX009 (ip), vehicle: suspension in saline 93 % of control | endpoint: median survival time, dose: 25.0 mg/kg/injection, schedule: Q01DX009 (ip), vehicle: suspension in saline 104 % of control | endpoint: median survival time, dose: 50.0 mg/kg/injection, schedule: Q01DX009 (ip), vehicle: suspension in saline 88 % of control

CSC1=NCCN1
inactive: [16] 97 % of control | endpoint: mean survival time, dose: 200.0 mg/kg/injection, schedule: Q04DX003 (ip), vehicle: saline 97 % of control | endpoint: mean survival time, dose: 400.0 mg/kg/injection, schedule: Q04DX003 (ip), vehicle: saline 91 % of control

COc1cc(C=O)ccc1OCc1ccccc1
inactive: [6] 106 % of control | [9] 95 % of control | [11] 113 % of control
